From article PMC8713164, “Development of a 1,2,4-Triazole-Based Lead Tankyrase Inhibitor: Part II” (Journal of Medicinal Chemistry, 2021)
Like-named read-outs stand apart in the source and are kept apart here.

What was measured:
TNKS2 = biological target: T1, TNKS2 (Homo sapiens, UniProt Q9H2K2); assay: TNKS2 biochemical assay (unreacted NAD+ fluorescence)
T1 construct: TNKS2 (residues 873–1162); made in house
T1 sequence (Q9H2K2 873-1162): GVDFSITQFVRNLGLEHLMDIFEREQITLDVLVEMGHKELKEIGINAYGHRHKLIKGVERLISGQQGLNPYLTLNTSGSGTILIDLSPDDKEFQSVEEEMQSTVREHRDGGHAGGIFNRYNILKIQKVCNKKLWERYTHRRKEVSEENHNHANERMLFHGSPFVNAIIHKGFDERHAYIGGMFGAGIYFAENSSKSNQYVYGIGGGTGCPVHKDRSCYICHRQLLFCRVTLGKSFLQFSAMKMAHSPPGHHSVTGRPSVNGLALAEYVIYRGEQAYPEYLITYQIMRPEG
Description: New compounds were prepared in half-log dilution series, and the reactions were carried out in quadruplicates with protein and compound controls to exclude the effect of compound autofluorescence. All reactions were performed at ambient temperature. TNKS1 (20 nM) or TNKS2 (5 nM) was incubated for 20 h in assay buffer (50 mM Bis-Tris propane (BTP), pH 7.0, 0.5 mM Tris(2-carboxyethyl)phosphine (TCEP), 0.01% Triton X-100) with compound and 10 μM or 500 nM NAD^+, respectively.

TNKS1 = biological target: T2, TNKS1 (Homo sapiens, UniProt O95271); assay: TNKS1 biochemical assay (unreacted NAD+ fluorescence); conditions: TNKS1 20 nM, 10 μM NAD+, 20 h
T2 construct: TNKS1 (residues 1030–1317); made in house

COLO 320DM cells [1] = assay: cells
Description: (§1) After 5 days, the antiproliferative effect of compound treatment was measured at 490 nm. Mean value ± standard deviation (SD) for one representative experiment of more than three repeated assays, each with six replicates, are shown. […] (b) Representative immunoblots of cytoplasmic TNKS1/2, AXIN1, AXIN2, and cytoplasmic and nuclear transcriptionally active β-catenin (non-phospho) and β-catenin. […] For (b) and (c), control = 0.001% DMSO. (c) Real-time RT-qPCR analyses of WNT/β-catenin signaling target genes (AXIN2, DKK1, NKD1, and APCDD1). Boxplots show median, first and third quartiles, and maximum and minimum whiskers for combined data from three independent experiments with three replicates each. Dotted lines depict the control mean value = 1. For (a) and (c), analysis of variance (ANOVA) tests (Holm–Sidak method, versus control) are indicated by *** (p < 0.001) and * (p < 0.05), while ANOVA on ranks tests (Dunn’s method, versus control) are indicated by ^† (p < 0.05).
Antiproliferative assays using colon cancer cell lines COLO 320DM and RKO were performed as previously described.[39]

[2] = mouse peroral pharmacokinetic analysis; type: in vivo; conditions: mouse PO 5 mg/kg
Description: The pharmacokinetic analyses in mice were performed according to the standard protocols of Medicilon as previously described[21] following approval by local animal experiment authorities (Shanghai, China) and in compliance with FELASA guidelines and recommendations. Three IRC mice were used per treatment group: 5 mg/kg 24 in 5% DMSO, 50% PEG400 (both Sigma-Aldrich), and 45% saline as vehicle.

[3] = microsomal stability, mouse; type: in vitro ADME; conditions: microsomes
Description: (§2) Kinetic solubility, microsomal stability, and plasma stability were determined following our internal protocol (Symeres). The Caco-2 and PPB determinations were performed by Cyprotex.

[4] = microsomal stability, dog; type: in vitro ADME; conditions: microsomes
Description: as §2

mouse plasma stability = type: in vitro ADME; conditions: read-out: mouse plasma stability t1/2
Description: as §2

PARP1 = biological target: T3, PARP1 (Homo sapiens, UniProt P09874); assay: PARP1 biochemical assay; conditions: > under 50% inhibition
T3 construct: made in house
Description: (§3) All reactions were performed at ambient temperature.
(§4) The assay conditions for the other PARP enzymes were used as previously described.[39]

PARP2 = biological target: T4, PARP2 (Homo sapiens, UniProt Q9UGN5); assay: PARP2 biochemical assay; conditions: > under 50% inhibition
T4 construct: made in house
Description: as §3, §4

PARP10 = biological target: T5, PARP10 (Homo sapiens, UniProt Q53GL7); assay: PARP10 biochemical assay; conditions: >>: no inhibition detected
T5 construct: made in house
Description: as §3, §4

PARP12 = biological target: T6, PARP12 (Homo sapiens, UniProt Q9H0J9); assay: PARP12 biochemical assay; conditions: >>: no inhibition detected; concentration limited by DMSO tolerance
T6 construct: made in house
Description: as §3, §4

PARP14 = biological target: T7, PARP14 (Homo sapiens, UniProt Q460N5); assay: PARP14 biochemical assay; conditions: > under 50% inhibition
T7 construct: made in house
Description: as §3, §4

PARP15 = biological target: T8, PARP15 (Homo sapiens, UniProt Q460N3); assay: PARP15 biochemical assay; conditions: >>: no inhibition detected; concentration limited by DMSO tolerance
T8 construct: made in house
Description: as §3, §4

hERG = biological target: T9, hERG (Homo sapiens, UniProt Q12809); assay: hERG inhibition
T9 construct: Eurofins (Cerep), contract assay
Description: (§5) A safety panel (Cerep) of 44 selected targets (n = 2) including hERG Inhibition using 10 μM 24 was performed by Eurofins. Ames and CYP3A4 inhibition assays were performed by Cyprotex, and the PXR assay (CYP induction) was performed at Admescope. The PARP assays are described below.

Ames test = assay: Ames test
Description: as §5

CYP3A4 = biological target: T10, CYP3A4 (Homo sapiens, UniProt P08684); assay: CYP3A4 inhibition; type: in vitro ADME
T10 construct: Cyprotex, contract assay
Description: as §5

human PXR = biological target: T11, human PXR (Homo sapiens, UniProt O75469); assay: PXR assay (CYP induction); type: in vitro ADME; conditions: highest concentration, 100 μM
T11 construct: Admescope, contract assay
Description: as §5

[5] = test system: Cerep Safety panel 44 targets; assay: Cerep safety panel of 44 selected targets; conditions: 10 μM
Description: as §5

COLO 320DM cells [6] = assay: Western blot of cytoplasmic and nuclear lysates of treated COLO 320DM cells; type: cell-based, human
Description: as §1
Western blot analysis of nuclear and cytoplasmic lysates from compound-treated COLO 320DM cells was performed as previously described.[39],[50]

T2 sequence (O95271 1030-1317): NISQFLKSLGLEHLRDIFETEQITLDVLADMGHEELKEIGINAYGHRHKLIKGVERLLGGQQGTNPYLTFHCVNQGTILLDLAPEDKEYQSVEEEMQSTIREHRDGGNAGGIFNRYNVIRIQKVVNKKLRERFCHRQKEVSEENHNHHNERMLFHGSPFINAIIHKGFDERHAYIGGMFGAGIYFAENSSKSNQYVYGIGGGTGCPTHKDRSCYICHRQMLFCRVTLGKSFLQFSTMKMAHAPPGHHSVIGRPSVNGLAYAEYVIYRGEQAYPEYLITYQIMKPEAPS
T4 sequence (Q9UGN5 whole entry): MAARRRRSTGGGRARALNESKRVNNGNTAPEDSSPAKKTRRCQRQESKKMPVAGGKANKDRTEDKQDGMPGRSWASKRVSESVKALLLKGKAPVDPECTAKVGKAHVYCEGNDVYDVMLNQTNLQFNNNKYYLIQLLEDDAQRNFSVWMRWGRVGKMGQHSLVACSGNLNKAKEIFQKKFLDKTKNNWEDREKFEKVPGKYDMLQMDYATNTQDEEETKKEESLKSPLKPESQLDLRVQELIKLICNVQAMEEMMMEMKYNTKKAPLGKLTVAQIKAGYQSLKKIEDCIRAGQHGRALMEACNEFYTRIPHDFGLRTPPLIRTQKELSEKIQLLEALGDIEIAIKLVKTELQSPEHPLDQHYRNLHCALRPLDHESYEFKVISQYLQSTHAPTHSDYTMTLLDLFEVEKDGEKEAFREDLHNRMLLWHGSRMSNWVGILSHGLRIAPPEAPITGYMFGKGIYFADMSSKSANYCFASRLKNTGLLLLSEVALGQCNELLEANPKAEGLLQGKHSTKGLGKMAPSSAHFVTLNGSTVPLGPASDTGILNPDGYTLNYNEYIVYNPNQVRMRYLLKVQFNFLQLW
T5 sequence (Q53GL7 whole entry): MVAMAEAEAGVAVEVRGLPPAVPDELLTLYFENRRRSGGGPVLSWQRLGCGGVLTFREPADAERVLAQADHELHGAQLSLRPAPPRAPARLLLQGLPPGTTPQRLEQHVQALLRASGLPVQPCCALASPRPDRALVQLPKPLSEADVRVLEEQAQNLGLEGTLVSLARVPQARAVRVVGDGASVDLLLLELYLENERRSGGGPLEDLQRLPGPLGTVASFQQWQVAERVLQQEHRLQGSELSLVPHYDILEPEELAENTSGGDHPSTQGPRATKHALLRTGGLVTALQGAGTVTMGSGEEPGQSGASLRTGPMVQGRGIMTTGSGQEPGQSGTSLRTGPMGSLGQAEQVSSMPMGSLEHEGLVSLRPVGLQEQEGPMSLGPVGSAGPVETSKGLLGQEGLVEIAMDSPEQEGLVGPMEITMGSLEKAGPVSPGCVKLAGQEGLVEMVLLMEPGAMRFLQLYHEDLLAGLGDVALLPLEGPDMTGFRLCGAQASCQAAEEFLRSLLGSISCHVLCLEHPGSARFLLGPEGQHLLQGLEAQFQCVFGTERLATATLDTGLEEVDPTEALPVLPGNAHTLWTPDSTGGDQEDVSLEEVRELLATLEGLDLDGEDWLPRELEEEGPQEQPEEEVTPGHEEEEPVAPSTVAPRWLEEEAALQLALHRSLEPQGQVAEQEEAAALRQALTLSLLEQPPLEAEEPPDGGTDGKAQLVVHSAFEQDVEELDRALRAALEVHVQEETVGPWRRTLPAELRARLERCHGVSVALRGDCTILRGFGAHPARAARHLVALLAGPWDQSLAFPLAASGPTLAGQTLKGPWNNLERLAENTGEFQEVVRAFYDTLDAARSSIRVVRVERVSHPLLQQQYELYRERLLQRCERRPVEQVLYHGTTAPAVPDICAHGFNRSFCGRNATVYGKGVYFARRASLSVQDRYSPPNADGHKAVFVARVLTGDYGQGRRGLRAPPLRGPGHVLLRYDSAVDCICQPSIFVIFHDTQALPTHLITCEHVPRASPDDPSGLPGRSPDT
T3 sequence (P09874 whole entry): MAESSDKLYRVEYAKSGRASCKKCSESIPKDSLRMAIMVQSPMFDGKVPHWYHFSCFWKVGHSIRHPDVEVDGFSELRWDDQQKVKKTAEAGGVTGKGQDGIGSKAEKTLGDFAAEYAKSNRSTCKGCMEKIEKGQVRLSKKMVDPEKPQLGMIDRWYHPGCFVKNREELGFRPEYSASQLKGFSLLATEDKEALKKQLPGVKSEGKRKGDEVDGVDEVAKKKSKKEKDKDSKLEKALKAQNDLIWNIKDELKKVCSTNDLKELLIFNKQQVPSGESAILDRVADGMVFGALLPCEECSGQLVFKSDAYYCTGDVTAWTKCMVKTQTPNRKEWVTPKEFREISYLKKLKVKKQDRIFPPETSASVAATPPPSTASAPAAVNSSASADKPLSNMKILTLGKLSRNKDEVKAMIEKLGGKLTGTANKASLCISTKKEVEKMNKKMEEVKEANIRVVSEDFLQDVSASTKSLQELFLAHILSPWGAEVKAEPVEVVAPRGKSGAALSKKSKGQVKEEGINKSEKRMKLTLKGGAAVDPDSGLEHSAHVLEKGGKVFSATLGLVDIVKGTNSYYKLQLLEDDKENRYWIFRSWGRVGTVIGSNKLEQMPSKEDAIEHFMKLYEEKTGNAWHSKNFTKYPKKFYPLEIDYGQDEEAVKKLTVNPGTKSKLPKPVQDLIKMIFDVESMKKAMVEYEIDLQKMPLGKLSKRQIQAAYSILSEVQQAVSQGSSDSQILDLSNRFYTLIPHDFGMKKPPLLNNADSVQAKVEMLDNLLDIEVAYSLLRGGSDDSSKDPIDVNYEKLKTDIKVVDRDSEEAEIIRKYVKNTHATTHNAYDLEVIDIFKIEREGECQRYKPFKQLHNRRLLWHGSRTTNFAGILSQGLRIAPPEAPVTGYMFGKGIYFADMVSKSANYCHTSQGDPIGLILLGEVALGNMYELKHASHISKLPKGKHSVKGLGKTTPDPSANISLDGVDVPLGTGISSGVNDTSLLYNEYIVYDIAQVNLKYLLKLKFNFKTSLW
T9 sequence (Q12809 whole entry): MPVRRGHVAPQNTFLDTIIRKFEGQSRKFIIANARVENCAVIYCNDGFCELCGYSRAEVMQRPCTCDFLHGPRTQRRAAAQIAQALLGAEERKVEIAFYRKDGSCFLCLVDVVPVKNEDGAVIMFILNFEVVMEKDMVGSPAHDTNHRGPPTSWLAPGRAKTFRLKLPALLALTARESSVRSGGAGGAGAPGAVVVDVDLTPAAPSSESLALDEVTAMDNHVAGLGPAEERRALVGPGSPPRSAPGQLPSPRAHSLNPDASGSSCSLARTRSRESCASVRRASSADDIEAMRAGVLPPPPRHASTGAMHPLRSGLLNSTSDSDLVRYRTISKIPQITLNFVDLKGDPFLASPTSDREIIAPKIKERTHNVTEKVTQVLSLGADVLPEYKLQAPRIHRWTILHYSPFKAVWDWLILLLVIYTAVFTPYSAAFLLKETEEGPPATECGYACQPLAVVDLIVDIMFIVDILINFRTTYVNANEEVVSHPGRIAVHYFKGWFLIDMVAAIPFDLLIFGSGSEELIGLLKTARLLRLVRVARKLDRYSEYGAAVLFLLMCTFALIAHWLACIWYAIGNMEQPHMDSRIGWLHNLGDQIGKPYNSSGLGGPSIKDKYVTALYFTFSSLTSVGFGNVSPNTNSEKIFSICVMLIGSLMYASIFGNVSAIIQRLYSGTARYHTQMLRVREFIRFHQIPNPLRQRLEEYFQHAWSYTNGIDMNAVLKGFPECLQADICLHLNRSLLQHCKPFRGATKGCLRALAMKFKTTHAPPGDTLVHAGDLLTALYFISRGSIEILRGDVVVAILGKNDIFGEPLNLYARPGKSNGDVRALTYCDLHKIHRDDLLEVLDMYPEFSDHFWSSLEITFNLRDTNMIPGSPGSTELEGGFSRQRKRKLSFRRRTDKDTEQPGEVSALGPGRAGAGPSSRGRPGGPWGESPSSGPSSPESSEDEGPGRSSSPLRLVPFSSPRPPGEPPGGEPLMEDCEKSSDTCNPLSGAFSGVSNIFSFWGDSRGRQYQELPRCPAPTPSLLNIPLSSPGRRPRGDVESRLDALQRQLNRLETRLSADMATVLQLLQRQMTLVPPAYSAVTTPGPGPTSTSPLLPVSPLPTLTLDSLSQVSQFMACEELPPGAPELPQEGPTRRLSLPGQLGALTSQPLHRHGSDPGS
T8 sequence (Q460N3 whole entry): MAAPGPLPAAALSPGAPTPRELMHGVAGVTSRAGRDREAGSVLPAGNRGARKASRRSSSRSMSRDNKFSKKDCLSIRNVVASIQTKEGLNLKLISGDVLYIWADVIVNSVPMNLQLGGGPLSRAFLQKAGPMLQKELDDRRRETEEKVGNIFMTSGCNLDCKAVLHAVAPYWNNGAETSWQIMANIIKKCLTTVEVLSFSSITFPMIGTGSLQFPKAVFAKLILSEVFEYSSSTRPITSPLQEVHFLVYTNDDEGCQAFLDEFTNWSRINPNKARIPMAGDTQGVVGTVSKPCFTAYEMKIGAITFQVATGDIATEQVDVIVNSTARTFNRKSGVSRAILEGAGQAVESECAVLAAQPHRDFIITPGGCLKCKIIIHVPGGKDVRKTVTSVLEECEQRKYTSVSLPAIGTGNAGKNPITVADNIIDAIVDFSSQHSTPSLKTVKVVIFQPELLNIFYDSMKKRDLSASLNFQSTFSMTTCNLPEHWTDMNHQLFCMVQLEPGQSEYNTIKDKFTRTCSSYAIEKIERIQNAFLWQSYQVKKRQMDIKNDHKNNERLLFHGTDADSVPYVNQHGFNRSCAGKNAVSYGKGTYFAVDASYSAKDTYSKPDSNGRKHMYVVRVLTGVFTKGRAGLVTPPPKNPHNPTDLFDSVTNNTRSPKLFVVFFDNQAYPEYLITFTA

For `CCOc1ccc(-c2nnc([C@H]3C[C@H](NC(=O)c4cccc5nccnc45)C3)n2-c2ccccc2F)nc1` [Compound 24, N-(trans-3-(5-(5-Ethoxypyridin-2-yl)-4-(2-fluorophenyl)-4H-1,2,4-triazol-3-yl)cyclobutyl)quinoxaline-5-carboxamide], the IC50 (TNKS2; IC50 TNKS2) was 1.8 nM, the IC50 (TNKS2; IC50 TNKS2, TNKS2 5 nM, 500 nM NAD+, 20 h, quadruplicates, 95% confidence intervals in parentheses, 24: averages of multiple independent measurements) was 1.6 nM and the “TNKS2 pIC50 ± SEM” value (TNKS2; TNKS2 5 nM, 500 nM NAD+, 20 h) was 2.0 (8.71 ± 0.069). It also gave an IC50 (TNKS2; TNKS2 pIC50 ± SEM, TNKS2 5 nM, 500 nM NAD+, 20 h) of 1.62 nM, an IC50 (TNKS2; read-out: IC50 TNKS2) of 2 nM and an IC50 (TNKS1) of 13 nM. The “TNKS1 pIC50 ± SEM” value (TNKS1) was 7.90 ± 0.054, the GI50 (COLO 320DM cells [1]; Homo sapiens, COLO 320DM, 120 h, read-out: COLO 320DM cells GI50, MTS, 5 days) was 10.1 nM and the “COLO 320DM cells GI25” value (COLO 320DM cells [1]; MTS, 5 days) was 2.5 nM. It also gave a GI50 (COLO 320DM cells [1]; read-out: COLO 320DM cells GI50, MTS, 5 days) of 10 nM, an AUC(0-inf) at 24 h ([2]; IRC, in vivo) of 5040 ng·h/mL and an AUC(0-t) ([2]; IRC, in vivo) of 4940 ng·h/mL. For the same compound, the Cmax at 24 h ([2]; IRC, in vivo) was 1970 ng/mL, the Tmax at 24 h ([2]; IRC, in vivo) was 0.5 h and the half-life at 24 h ([2]; IRC, in vivo) was 1.5 h. It also gave an MRT inf at 24 h ([2]; IRC, in vivo, read-out: MRT 0 → ∞) of 2.39 h, a CL [2] of 16.5 mL/min/kg and a Vd [2] of 2.15 L/kg. The “peak value (Cmax) relative to that of 1” value [2] was “about 60%”, the microsomal CLint at 1 h [3] was 22 µL/min/mg and the microsomal CLint at 1 h [4] was 3.8 µL/min/mg. The half-life (mouse plasma stability) was > 2 h, the IC50 (PARP1) was > 100000 nM and the IC50 (PARP2) was > 100000 nM. For the same compound, the IC50 (PARP10) was > 10000 nM, the IC50 (PARP12) was > 10000 nM and the IC50 (PARP14) was > 100000 nM. The IC50 (PARP15) was > 10000 nM, the IC50 (hERG) was > 25000 nM and the Ames test (Ames test) was “nongenotoxic”. The IC50 (CYP3A4) was > 25000 nM, the “CYP induction (human PXR)” value (human PXR) was “nonactivator ^b ^c” and the “Cerep Safety panel 44 targets (overall result)” value [5] was “clean”. The “Cerep Safety panel 44 targets inhibition, all targets” value ([5]; n = 2) was < 50%, the “level of transcriptionally active β-catenin (nonphosphorylated)” value (COLO 320DM cells [6]; cytoplasmic and nuclear fractions) was “reduced” and the TNKS1/2 protein levels (COLO 320DM cells [6]; dose-dependent, immunoblot) was “either increased or decreased”. The “AXIN1 and AXIN2 protein levels” value (COLO 320DM cells [6]; immunoblot) was “stabilized”.
